Laboratory results taken from ChEMBL document CHEMBL5653615 (J Biol Chem, 2013).

What was measured:
[1] = molecular target: Serine/threonine-protein kinase Chk2 (Homo sapiens) (UniProt O96017); assay: Inhibition of human CHK2 at 18.6 nM by HotSpot assay relative to control
[2] = molecular target: T1, MAP/microtubule affinity-regulating kinase 4 (Homo sapiens) (UniProt Q96L34); assay: Inhibition of human MARK4 at 1.82 nM by HotSpot assay relative to control
T1 sequence (whole entry): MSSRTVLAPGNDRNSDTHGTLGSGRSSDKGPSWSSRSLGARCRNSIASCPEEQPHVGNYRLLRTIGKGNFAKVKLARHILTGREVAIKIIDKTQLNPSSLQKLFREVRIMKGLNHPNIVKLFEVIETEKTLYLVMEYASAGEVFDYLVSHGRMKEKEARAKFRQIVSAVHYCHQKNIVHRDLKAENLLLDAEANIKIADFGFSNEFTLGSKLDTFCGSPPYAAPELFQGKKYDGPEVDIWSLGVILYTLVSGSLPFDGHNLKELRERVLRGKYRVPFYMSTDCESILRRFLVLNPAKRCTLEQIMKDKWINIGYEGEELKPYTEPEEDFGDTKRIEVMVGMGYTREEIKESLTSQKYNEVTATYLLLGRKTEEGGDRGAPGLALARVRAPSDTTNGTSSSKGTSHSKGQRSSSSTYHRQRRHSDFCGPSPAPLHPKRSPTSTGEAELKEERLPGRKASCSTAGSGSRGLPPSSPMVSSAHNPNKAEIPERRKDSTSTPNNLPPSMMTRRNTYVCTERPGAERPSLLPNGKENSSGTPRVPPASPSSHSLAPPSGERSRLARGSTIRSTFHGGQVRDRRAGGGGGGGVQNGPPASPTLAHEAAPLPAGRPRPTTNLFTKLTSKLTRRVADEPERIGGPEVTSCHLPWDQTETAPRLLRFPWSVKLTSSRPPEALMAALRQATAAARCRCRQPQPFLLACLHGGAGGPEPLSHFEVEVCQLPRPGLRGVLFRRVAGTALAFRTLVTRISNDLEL

[3] = molecular target: T2, Activin receptor type-1 (Homo sapiens) (UniProt Q04771); assay: Inhibition of human ALK2 at 1.82 nM by HotSpot assay relative to control
T2 sequence (whole entry): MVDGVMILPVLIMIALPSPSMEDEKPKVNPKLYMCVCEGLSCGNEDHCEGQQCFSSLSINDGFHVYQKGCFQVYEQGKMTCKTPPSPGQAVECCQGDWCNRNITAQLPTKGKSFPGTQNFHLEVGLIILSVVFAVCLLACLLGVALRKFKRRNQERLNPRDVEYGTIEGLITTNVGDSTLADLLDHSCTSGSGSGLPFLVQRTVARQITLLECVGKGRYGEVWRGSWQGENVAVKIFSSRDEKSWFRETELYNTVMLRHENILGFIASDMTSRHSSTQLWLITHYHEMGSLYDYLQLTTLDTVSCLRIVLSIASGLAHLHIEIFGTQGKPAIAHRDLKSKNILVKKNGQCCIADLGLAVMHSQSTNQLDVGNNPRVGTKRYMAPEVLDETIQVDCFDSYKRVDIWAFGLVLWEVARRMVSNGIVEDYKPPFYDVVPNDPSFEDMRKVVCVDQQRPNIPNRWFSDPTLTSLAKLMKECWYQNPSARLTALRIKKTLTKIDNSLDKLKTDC

[4] = molecular target: T3, Activin receptor type-1B (Homo sapiens) (UniProt P36896); assay: Inhibition of human ALK4 at 1.82 nM by HotSpot assay relative to control
T3 sequence (whole entry): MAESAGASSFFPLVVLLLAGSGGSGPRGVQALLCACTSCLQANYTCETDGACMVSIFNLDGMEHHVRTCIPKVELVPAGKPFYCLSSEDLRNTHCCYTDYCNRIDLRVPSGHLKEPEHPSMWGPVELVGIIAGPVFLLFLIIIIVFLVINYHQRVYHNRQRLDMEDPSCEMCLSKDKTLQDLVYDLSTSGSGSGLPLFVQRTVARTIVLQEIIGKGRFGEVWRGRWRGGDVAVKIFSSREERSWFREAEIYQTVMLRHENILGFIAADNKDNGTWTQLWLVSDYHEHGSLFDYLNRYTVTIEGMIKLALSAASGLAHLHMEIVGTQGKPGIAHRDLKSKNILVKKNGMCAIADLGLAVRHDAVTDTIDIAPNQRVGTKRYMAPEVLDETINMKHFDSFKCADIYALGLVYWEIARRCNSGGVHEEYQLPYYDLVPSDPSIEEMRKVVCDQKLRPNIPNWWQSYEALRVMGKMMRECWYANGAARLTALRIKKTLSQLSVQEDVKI

[5] = molecular target: Dual specificity tyrosine-phosphorylation-regulated kinase 1A (Homo sapiens) (UniProt Q13627); assay: Inhibition of human DYRK1 at 1.82 nM by HotSpot assay relative to control
[6] = molecular target: T4, Serine/threonine-protein kinase ULK2 (Homo sapiens) (UniProt Q8IYT8); assay: Inhibition of human ULK2 at 1.82 nM by HotSpot assay relative to control
T4 sequence (whole entry): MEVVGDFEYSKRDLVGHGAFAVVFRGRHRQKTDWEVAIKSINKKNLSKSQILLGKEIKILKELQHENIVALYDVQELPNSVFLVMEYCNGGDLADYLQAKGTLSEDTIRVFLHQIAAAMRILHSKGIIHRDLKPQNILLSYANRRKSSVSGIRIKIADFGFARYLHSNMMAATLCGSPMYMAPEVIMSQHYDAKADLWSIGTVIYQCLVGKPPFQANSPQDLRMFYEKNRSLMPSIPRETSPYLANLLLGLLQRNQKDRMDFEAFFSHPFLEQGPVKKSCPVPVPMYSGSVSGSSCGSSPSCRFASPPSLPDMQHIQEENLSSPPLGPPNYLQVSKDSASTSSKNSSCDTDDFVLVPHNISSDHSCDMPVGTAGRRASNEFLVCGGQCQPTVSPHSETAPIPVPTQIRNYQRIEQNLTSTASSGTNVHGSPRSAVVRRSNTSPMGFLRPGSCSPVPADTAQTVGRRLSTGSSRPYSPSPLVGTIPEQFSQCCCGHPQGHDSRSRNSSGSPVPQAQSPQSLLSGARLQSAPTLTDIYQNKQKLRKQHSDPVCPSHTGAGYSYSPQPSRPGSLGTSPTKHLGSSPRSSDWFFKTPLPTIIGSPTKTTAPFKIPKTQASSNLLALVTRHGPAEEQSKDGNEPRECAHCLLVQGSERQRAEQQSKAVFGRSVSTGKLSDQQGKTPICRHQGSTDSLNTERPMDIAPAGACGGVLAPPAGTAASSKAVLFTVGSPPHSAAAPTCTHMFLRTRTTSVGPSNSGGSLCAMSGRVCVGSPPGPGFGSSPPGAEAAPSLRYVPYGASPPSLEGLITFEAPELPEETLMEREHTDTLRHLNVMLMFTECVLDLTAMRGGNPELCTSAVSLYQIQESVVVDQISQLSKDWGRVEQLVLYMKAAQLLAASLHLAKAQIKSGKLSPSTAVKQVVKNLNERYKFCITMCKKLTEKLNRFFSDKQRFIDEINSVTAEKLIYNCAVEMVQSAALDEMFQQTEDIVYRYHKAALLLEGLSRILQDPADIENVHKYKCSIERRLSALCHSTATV

Serine/threonine-protein kinase Chk2 (Homo sapiens), sequence (O96017 whole entry): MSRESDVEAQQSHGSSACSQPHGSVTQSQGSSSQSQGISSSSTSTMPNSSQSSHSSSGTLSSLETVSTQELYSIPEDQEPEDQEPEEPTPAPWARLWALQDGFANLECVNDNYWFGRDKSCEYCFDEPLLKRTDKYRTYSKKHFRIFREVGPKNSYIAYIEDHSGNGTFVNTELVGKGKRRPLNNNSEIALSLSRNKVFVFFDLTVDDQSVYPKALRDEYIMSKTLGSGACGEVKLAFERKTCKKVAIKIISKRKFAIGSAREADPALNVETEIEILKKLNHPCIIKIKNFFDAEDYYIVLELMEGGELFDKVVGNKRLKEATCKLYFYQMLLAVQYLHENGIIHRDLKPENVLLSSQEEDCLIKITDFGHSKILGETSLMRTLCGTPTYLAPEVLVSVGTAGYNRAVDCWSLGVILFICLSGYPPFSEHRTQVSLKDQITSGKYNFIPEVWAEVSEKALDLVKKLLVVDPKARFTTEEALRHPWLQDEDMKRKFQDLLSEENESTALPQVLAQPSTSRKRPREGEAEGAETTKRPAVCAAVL

inhibition [1] | inhibition [2] | inhibition [3] | inhibition [4] | inhibition [5] | inhibition [6] | Structure (SMILES)
0.83% | – | – | – | – | – | C[C@]1(O)C[C@@H](c2nc(-c3ccc4ccc(-c5ccccc5)nc4c3)c3c(N)nccn32)C1
– | 2.64% | 5.9% | 0.66% | -3.18% | -7.91% | C[C@@]1(C(=O)Nc2ccc(F)nc2)CCCN1c1nc(Nc2cc(C3CC3)n[nH]2)c2cccn2n1
